# Laboratory results reported in patent US7074768B2, “Modified protein kinase A-specific oligonucleotides and methods of their use” (Idera Pharmaceuticals, Inc., priority 1995, dated 2006).
# Test system: OVCAR-3 ovarian cancer cells
# Test: Soft agar growth of OVCAR-3 cells
# Type: cell-based, human
# Description: Cell lines. OVCAR human ovarian cancer cells were purchased from American Type Culture Collection (Rockville, Md., USA). Cells were maintained in DMEM and HAM'S F-12 (1:1) supplemented with 10% heat-inactivated FBS, 20 mM HEPES, pH 7.4, penicillin (100 UI/ml), streptomycin (100 μg/ml) and 4 mM glutamine (ICN, Irvine, UK) in a humified atmosphere of 95% air and 5% CO2 at 37° C.
# Soft agar growth. Cells (10^4 cells/well) were seeded in 0.5 ml of 0.3% Difco Noble agar (Difco, Detroit, Mich.) supplemented with complete culture medium. This suspension was layered over 0.5 ml of 0.8% agar-medium base layer in 24 multiwell cluster dishes (Becton Dickinson) and treated with various concentrations of HYB 165 or HYB295 every 48 hours for three times. After 12 days the cells were stained with nitroblue tetrazolium (Sigma, St. Louis, Mo.) and colonies larger than 0.05 mm were counted.
substance,measurement,setting,value
"HYB 165: Hybrid 18-mer mixed backbone antisense to PKA RIα, GCGUGCCTCCTCACUGGC (SEQ ID NO:4), 2-O-methyl ribonucleotides at 5′ and 3′ ends (sugars by position and backbone not given here; 2'-O-methyl ribonucleotides at both ends, mixed backbone)",inhibition of cell growth,0.1 μM,approximately 25%
same,inhibition of cell growth,0.5 μM,about 58%
same,inhibition of cell growth,1 μM,about 75%
same,inhibition of cell growth,2.5 μM,about 95%
